Patent EP0406958B1, “Positive inotropic and lusitropic 3,5-dihydroimidazo[2,1-b]quinazolin-2(1H)-one derivatives” (JANSSEN PHARMACEUTICA N.V., priority 1989, dated 1991)
pIC50: −log10 of the molar value.

Columns and labels:
[1] = target: T1, Human Platelet PDE IIIc (Homo sapiens, UniProt Q14432); test: Inhibition of phosphodiesterase type IIIc (3H-cAMP hydrolysis), human platelet enzyme; type: biochemical; conditions: pH 7.1, 1.2 µM 3H-cAMP, 10 min at 37°C; IC50 calculated graphically
T1 construct: canine heart and human platelet phosphodiesterase PDE IIIc; from tissue; host or cells: human platelets
T1 sequence (Q14432 whole entry): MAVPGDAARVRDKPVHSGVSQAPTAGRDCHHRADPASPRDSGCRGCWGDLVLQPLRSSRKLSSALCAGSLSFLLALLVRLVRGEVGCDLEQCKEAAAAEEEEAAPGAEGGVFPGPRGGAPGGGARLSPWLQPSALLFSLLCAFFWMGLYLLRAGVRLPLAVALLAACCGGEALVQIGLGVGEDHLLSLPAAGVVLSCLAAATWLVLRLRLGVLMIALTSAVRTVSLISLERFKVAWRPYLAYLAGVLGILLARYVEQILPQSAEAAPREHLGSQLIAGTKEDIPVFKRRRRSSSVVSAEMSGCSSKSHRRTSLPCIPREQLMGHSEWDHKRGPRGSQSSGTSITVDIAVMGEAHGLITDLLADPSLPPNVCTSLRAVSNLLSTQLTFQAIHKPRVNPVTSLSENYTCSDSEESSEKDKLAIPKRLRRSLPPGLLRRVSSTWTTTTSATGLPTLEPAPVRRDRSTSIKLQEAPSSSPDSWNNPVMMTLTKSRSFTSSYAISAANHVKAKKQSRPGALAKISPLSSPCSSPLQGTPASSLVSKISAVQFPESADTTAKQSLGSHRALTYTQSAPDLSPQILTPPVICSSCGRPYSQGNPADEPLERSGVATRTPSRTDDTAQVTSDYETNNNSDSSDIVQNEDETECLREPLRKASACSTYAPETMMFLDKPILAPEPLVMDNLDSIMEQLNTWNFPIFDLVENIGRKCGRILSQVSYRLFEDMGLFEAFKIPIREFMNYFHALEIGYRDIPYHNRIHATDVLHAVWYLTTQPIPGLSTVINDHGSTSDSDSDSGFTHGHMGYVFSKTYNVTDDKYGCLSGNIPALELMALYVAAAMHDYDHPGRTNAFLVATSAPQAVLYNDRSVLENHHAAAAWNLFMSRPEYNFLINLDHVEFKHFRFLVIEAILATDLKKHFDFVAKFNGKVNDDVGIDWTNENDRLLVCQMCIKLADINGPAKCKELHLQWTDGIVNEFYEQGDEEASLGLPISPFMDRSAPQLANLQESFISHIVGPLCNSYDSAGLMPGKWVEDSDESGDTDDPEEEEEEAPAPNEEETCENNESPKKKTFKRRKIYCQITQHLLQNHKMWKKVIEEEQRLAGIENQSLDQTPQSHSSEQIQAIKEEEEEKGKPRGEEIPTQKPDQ
Procedure: The incubation mixture (pH 7.1) (200 »l) contained 50mM 4-morpholinopropanesulfonic acid (MOPS), 1mM ethylenebis(oxyethylenenitrilo)tetraacetic acid (EGTA), 6 mM magnesium chloride, 0.25 mg/ml bovine serum albumin, 1.2 »M ³H-cAMP (310 mCi/mmole) and the phosphodiesterase type IIIc, and was prepared by dilution with water of a stock solution of MOPS, EGTA, MgCl₂, BSA and ³H-cAMP (50 »l) and 2 to 50 »l of a solution of phosphodiesterase type IIIc, depending on the enzymatic activity. […] When the effect of different compounds on phosphodiesterase activity was tested, the medium without cAMP was incubated with the compound(s) or its carrier (DMSO - 1% final concentration) for 5 min. The enzymatic reaction was started by addition of ³H-cAMP and stopped 10 min later after transferring the tubes in a waterbath at 100°C for 40 sec. After cooling to room temperature, alkaline phosphatase (0.25 »g/ml) was added and the mixture was left at room temperature for 20 min. The mixture was subsequently applied to a 1 ml DEAE-Sephadex A-25 column (pasteur pipet) and washed twice with 3 ml 20 mM Tris-HCl at pH 7.4. The ³H-labelled reaction products in the eluate were quantified by liquid scintillation counting. The inhibiting effect of the present compounds on canine heart and human platelet phosphodiesterase PDE IIIc was measured at different concentrations of the instant compounds. The IC₅₀ values were calculated graphically from the thus obtained inhibition values.

[2] = tested on: mongrel dogs; test: Haemodynamic variables in dogs after cumulative intravenous bolus administration; type: in vivo; conditions: maximum end-dose 0.16 mg kg-1 (comp. 14: 0.08 mg kg-1)
Procedure: Compound (9) was dissolved in 20% hydroxypropyl beta cyclodextrine ether slightly acidified with 1N HCl, in a concentration of 1mg.ml⁻¹ (pH 5.5). The experiments were performed on 7 mongrel dogs of either sex and varying age, ranging in body weight from 27 to 33 kg (median 30 kg). The animals were intravenously anaesthetized with a mixture of 0.015 mg.kg⁻¹ scopolamine and 0.05 mg.kg⁻¹ lofentanil. The animals were intubated with a cuffed endotracheal tube. Intermittent positive pressure ventilation was performed with a mixture of pressurized air and oxygen (60/40), using a volumecontrolled ventilator (Siemens Elema). In the control period the CO₂ concentration in the expired air (ET CO₂), as determined with a capnograph (Gould Godart), was kept at 5 vol% by adjustment of the respiratory volume (resp. rate = 20 breaths.min⁻¹). A continous intravenous infusion of 0.5 mg.kg⁻¹.h⁻¹ of etomidate was started immediately after induction. Body temperature was monitored with a thermistor positioned in the pulmonary artery. To prevent blood clotting heparine, 1000 IU.kg⁻¹ iv., was administered. The electrocardiogram (ECG) was derived from limb leads (standard lead 2). Left ventricular (LVP) and ascending aortic blood pressure (AoP) were measured by retrograde catheterisation via the femoral […] with high fidelity cathetertip micromanometers (Honeywell). The other femoral vein was cannulated for injection of saline at room temperature into the right atrium and for injection of compound (9). Peak ascending aortic blood flow velocity was measured through the right carotid artery with an electomagnetic catheter-tip probe connected to a square wave electomagnetic flow meter (Janssen Scientific Instruments). The following variables -inter alia- were calculated on-line, usually at 1 min intervals: heart rate (HR), diastolic (AoPd) aortic blood pressure, left ventricular end-diastolic pressure (LVEDP), the maximum positive and maximum negative rate of change of isovolumic LVP (LV dp/dt max and min, respectively), the maximum positive first derivative divided by the actually developed pressure in the left ventricle (LV dp/dtmax/Pd). The time constant (T) of relaxation was measured with the use of an exponential analysis that also estimated the asymptote. […] In the wash-out period the effects were followed for 75 min. […]

[3] = tested on: mongrel dogs; test: Positive inotropy and lusitropy, blood pressure and heart rate in anaesthetized dogs, slow intravenous infusion; type: in vivo; conditions: for cardiac output / heart rate: slow iv infusion over 120 min
Procedure: The positive inotropic and lusitropic effect of the instant compounds were assessed by an in vitro assay system to detect inhibiting effect on the phosphodiesterase type IIIc and in an in vivo experiment in closed-chest anaestetized dogs by monitoring cardiac and haemodynamic effects of an intravenous infusion of the instant compounds.
Compound (9) was dissolved in 20% hydroxypropyl beta cyclodextrine ether slightly acidified with 1N HCl, in a concentration of 1mg.ml⁻¹ (pH 5.5). The experiments were performed on 7 mongrel dogs of either sex and varying age, ranging in body weight from 27 to 33 kg (median 30 kg). The animals were intravenously anaesthetized with a mixture of 0.015 mg.kg⁻¹ scopolamine and 0.05 mg.kg⁻¹ lofentanil. The animals were intubated with a cuffed endotracheal tube. Intermittent positive pressure ventilation was performed with a mixture of pressurized air and oxygen (60/40), using a volumecontrolled ventilator (Siemens Elema). In the control period the CO₂ concentration in the expired air (ET CO₂), as determined with a capnograph (Gould Godart), was kept at 5 vol% by adjustment of the respiratory volume (resp. rate = 20 breaths.min⁻¹). A continous intravenous infusion of 0.5 mg.kg⁻¹.h⁻¹ of etomidate was started immediately after induction. Body temperature was monitored with a thermistor positioned in the pulmonary artery. To prevent blood clotting heparine, 1000 IU.kg⁻¹ iv., was administered. The electrocardiogram (ECG) was derived from limb leads (standard lead 2). Left ventricular (LVP) and ascending aortic blood pressure (AoP) were measured by retrograde catheterisation via the femoral […] with high fidelity cathetertip micromanometers (Honeywell). The other femoral vein was cannulated for injection of saline at room temperature into the right atrium and for injection of compound (9). Peak ascending aortic blood flow velocity was measured through the right carotid artery with an electomagnetic catheter-tip probe connected to a square wave electomagnetic flow meter (Janssen Scientific Instruments). The following variables -inter alia- were calculated on-line, usually at 1 min intervals: heart rate (HR), diastolic (AoPd) aortic blood pressure, left ventricular end-diastolic pressure (LVEDP), the maximum positive and maximum negative rate of change of isovolumic LVP (LV dp/dt max and min, respectively), the maximum positive first derivative divided by the actually developed pressure in the left ventricle (LV dp/dtmax/Pd). The time constant (T) of relaxation was measured with the use of an exponential analysis that also estimated the asymptote. After a recorded control period of 20 min the intravenous infusion of compound (9) was started at a rate of […]. In the wash-out period the effects were followed for 75 min. […] These positive inotropic and lusitropic, and vasodilatory effects of the compound (9) are long-lasting, since the changes in the variables last for more than 75 min after stopping the infusion of a total dose of 0.60 mg.kg⁻¹. […]

[4] = slow infusion (0.005 mg kg-1 min-1) for two hours

Q: Which results are given for `O=C1CN2Cc3cc(C(=NO)c4ccccc4)ccc3N=C2N1` [compound 2, (E+Z)-3,5-dihydro-7-[(hydroxyimino)phenylmethyl]imidazo[2,1-b]quinazolin-2(1H)-one]?
A: pIC50 [1]: 6.72; % changes in haemodynamic variables: AoPd (diastolic aortic blood pressure) [2]: -10%; % changes in haemodynamic variables: HR (heart rate) [2]: 15%; % changes in haemodynamic variables: LVdp/dtmax/Pd (positive inotropic effect) [2]: 102%; % changes in haemodynamic variables: T (time constant of relaxation, positive lusitropy) [2]: -38%

Q: What does the source list for `O=C1CN2Cc3cc(/C(=N/O)c4ccccc4)ccc3N=C2N1` [compound 3, (E)-3,5-dihydro-7-[(hydroxyimino)phenylmethyl]imidazo[2,1-b]quinazolin-2(1H)-one]?
A: pIC50 [1]: 6.72; cardiac output ([3]; anaesthetized mongrel dogs): increase in cardiac output; heart rate ([3]; anaesthetized mongrel dogs): without changing the heart rate; cardiac inotropy and lusitropy [3, 4]: dose-related increase; duration of effects after stopping the infusion [3, 4]: more than 90 minutes; systemic vasodilation [3, 4]: dose-related systemic vasodilation

Q: Which results are given for `CCOC(=O)CON=C(c1ccccc1)c1ccc2c(c1)CN1CC(=O)NC1=N2` [compound 6]?
A: pIC50 [1]: 6.42; % changes in haemodynamic variables: AoPd (diastolic aortic blood pressure) [2]: -13%; % changes in haemodynamic variables: HR (heart rate) [2]: 9%; % changes in haemodynamic variables: LVdp/dtmax/Pd (positive inotropic effect) [2]: 31%; % changes in haemodynamic variables: T (time constant of relaxation, positive lusitropy) [2]: -15%

Q: `CN(C(=O)CON=C(c1ccccc1)c1ccc2c(c1)CN1CC(=O)NC1=N2)C1CCCCC1` [compound 8] was tested. Which pIC50 [1] did it give?
A: The pIC50 was 7.24.

Q: What about the “% changes in haemodynamic variables: AoPd (diastolic aortic blood pressure)” value (“% changes … (diastolic aortic blood pressure)” for short) [2] of the same compound?
A: The value was 0%.

Q: And the “% changes in haemodynamic variables: HR (heart rate)” value (shortened to “% changes … (heart rate)”) [2]?
A: Its value is 0%.

Q: And the “% changes in haemodynamic variables: LVdp/dtmax/Pd (positive inotropic effect)” value [2]?
A: The value was 29%.

Q: And the “% changes in haemodynamic variables: T (time constant of relaxation, positive lusitropy)” value (“% changes in haemodynamic variables: T” for short) [2]?
A: The value was -45%.

Q: What does the source list for `CN(C(=O)CO/N=C(\c1ccccc1)c1ccc2c(c1)CN1CC(=O)NC1=N2)C1CCCCC1` [compound 9, (E)-N-cyclohexyl-N-methyl-2-[[[phenyl(1,2,3,5-tetrahydro-2-oxoimidazo[2,1-b]quinazolin-7-yl)methylene]amino]oxy]acetamide]?
A: pIC50 [1]: 7.60; variables related to cardiac performance (LV dp/dtmax, LV dp/dtmax/Pd) ([3]; 7 anaesthetized mongrel dogs, iv infusion over 120 min, starting after 10 min of infusion (0.05 mg.kg-1 total dose)): pronounced and significant increase; left ventricular end-diastolic pressure (preload) ([3]; anaesthetized mongrel dogs, iv infusion over 120 min): no change or even a slight decrease; time constant of relaxation ([3]; anaesthetized mongrel dogs, iv infusion, starting after 10 min of infusion (0.05 mg.kg-1 total dose)): significant decrease; Systemic and pulmonary peripheral vascular resistance ([3]; anaesthetized mongrel dogs, iv infusion, starting after 20 min of infusion (0.10 mg.kg-1 total dose)): decrease significantly; cardiac output ([3]; anaesthetized mongrel dogs): concomitant increase in cardiac output; heart rate ([3]; anaesthetized mongrel dogs): no change in heart rate; duration of the changes in the variables after stopping the infusion ([3]; positive inotropic, lusitropic and vasodilatory effects, total dose of 0.60 mg.kg-1): more than 75 min

Q: `CN(C(=O)CO/N=C(/c1ccccc1)c1ccc2c(c1)CN1CC(=O)NC1=N2)C1CCCCC1` [compound 10, (Z)-N-cyclohexyl-N-methyl-2-[[[phenyl(1,2,3,5-tetrahydro-2-oxoimidazo[2,1-b]quinazolin-7-yl)methylene]amino]-oxy]acetamide] was tested. Which pIC50 [1] did it give?
A: Its pIC50 is 6.85.

Q: And the “% changes … (diastolic aortic blood pressure)” value [2]?
A: The value was -5%.

Q: What about the “% changes … (heart rate)” value [2] of the same compound?
A: The value was 0%.

Q: What about the “% changes in haemodynamic variables: LVdp/dtmax/Pd (positive inotropic effect)” value [2] of the same compound?
A: The value was 18%.

Q: What about the “% changes in haemodynamic variables: T” value [2] of the same compound?
A: Its value is -13%.

Q: `COc1ccc(C(=O)c2ccc3c(c2)CN2CC(=O)NC2=N3)cc1` [compound 12] was tested. Which “% changes … (diastolic aortic blood pressure)” value [2] did it give?
A: Its value is 0%.

Q: And the “% changes … (heart rate)” value [2]?
A: The value was 10%.

Q: And the “% changes in haemodynamic variables: LVdp/dtmax/Pd (positive inotropic effect)” value [2]?
A: The value was 57.5%.

Q: And the “% changes in haemodynamic variables: T” value [2]?
A: The value was -10%.

Q: `COc1ccc(C(=NO)c2ccc3c(c2)CN2CC(=O)NC2=N3)cc1` [compound 13] was tested. Which “% changes … (diastolic aortic blood pressure)” value [2] did it give?
A: Its value is 0%.

Q: And the “% changes … (heart rate)” value [2]?
A: The value was -10%.

Q: And the “% changes in haemodynamic variables: LVdp/dtmax/Pd (positive inotropic effect)” value [2]?
A: Its value is 45%.

Q: And the “% changes in haemodynamic variables: T” value [2]?
A: Its value is -27%.

Q: Which results are given for `O=C1CN2Cc3cc(C(=O)c4ccc(F)cc4)ccc3N=C2N1` [compound 14]?
A: pIC50 [1]: 6.28; % changes in haemodynamic variables: AoPd (diastolic aortic blood pressure) [2]: 0%; % changes in haemodynamic variables: HR (heart rate) [2]: 5%; % changes in haemodynamic variables: LVdp/dtmax/Pd (positive inotropic effect) [2]: 35%; % changes in haemodynamic variables: T (time constant of relaxation, positive lusitropy) [2]: -16%

Q: How did the pIC50 [1] turn out when `COc1ccc(C(=O)c2ccc3c(c2)CN2CC(=O)NC2=N3)cc1OC` [compound 24] was run?
A: The pIC50 was 6.47.

Q: How did the pIC50 [1] turn out when `CCOC(=O)C=C(c1ccccc1)c1ccc2c(c1)CN1CC(=O)NC1=N2` [compound 32] was run?
A: Its pIC50 is 7.08.
